The source of these data is patent EP0366385A1, “Guanine derivatives having antiviral activity and their pharmaceutically acceptable salts” (THE WELLCOME FOUNDATION LIMITED, priority 1988, dated 1990).

The test system of the test is HIV. The experiment in a line: Antiviral activity against HIV (method of Mitsuya et al.). In kind it is cell-based. The conditions noted are these: Human immunodeficiency virus 1, read-out: IC₅₀. Here is the method: The title compound of Example 1G (L-valine ester) and the title compound of Example 1F (the 1S, 4R enantiomeric form of carbovir) were tested for activity against HIV generally in accordance with the method described by Mitsuya et al, Proc. Natl. Acad. Sci. Vol. 82, pp 7096-7100, Oct. 1985 and found to have activity against HIV at the following concentrations

Regarding `Nc1nc2c(ncn2[C@H]2C=C[C@@H](CO)C2)c(=O)[nH]1` [Example 1F, (1R, 4S)-9-(4-Hydroxymethyl-2-cyclopentenyl)guanine], the IC50 was 2500 nM.
